Values joined by “and” are separate entries in the source; they are usually repeats but may differ in a detail not shown here. Equal values may be shown once.
How the values were obtained:
[1] = target: T1, recombinant wild type GCase (Homo sapiens, UniProt P04062); experiment: Covalent binding assay: activity of GCase activated by probe 4; assay type: biochemical; conditions: for enzyme activity comparing to the wt. GCase: covalent activation
T1 construct: purchased Shire Human Genetic Therapies, Inc. Vpriv
T1 sequence (P04062 40-536): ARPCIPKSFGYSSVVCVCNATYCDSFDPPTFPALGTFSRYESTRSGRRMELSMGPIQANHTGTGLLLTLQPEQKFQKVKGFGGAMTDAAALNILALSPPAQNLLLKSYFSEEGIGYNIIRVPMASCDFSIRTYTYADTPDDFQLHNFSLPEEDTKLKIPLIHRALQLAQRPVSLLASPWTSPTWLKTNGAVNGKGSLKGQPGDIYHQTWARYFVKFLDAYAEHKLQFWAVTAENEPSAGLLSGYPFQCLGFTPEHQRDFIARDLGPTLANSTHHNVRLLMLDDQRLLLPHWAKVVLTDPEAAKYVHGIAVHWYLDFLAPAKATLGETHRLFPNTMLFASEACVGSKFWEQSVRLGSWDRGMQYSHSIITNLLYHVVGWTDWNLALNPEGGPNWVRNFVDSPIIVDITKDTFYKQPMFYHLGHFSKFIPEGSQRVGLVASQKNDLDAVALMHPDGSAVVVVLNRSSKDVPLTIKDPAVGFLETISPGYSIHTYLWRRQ
Procedure: To the recombinant wild type enzyme (22 μM, 95 μL, 1 equiv) in 0.1 M phosphate buffer (pH 7.2) was added 2,5-dioxopyrrolidin-1-yl 3-(2-(2-(4-(4-(2,4-dimethylpyrrolo[1,2-a]pyrimidine-8-carboxamido)phenyl)-1H-1,2,3-triazol-1-yl)ethoxy)ethoxy)propanoate (4) in DMSO (0.89 mM, 5 μL, 2 equiv) in one portion, and was vortexed for 5 sec immediately. At indicated time points, the reaction solution (2 μL) was sampled and diluted (1:3125 dilution) into the assay buffer (50 mM citric acid, 176 mM K2HPO4, and 0.01% Tween-20 at pH 5.9). After 2 h the reaction solution was dialyzed three times with 0.1 M phosphate buffer (pH 7.2). The enzyme was adjusted to the same concentration and sampled for activity. The dilution solutions were assayed with three substrates, resorufin substrate, 4-MU substrate, and natural substrate using the method in Example 5 and Example 6 without adding compounds.
The probe 4 was subjected to the covalent binding assay against GCase. The reaction conditions, including the buffer pH value, the concentration of the protein and probe, and the reaction temperature were carefully adjusted to achieve the maximum activation. With the optimized reaction condition, the enzyme activity was activated in a time-dependent manner (FIG. 5). The enzyme could be activated by probe 4 with around 22 and 28 folds activity comparing to the wt. GCase in the 4MU-Glc substrate (FIG. 5A) and red substrate (FIG. 5B) enzyme activity assay respectively.

[2] = target: T2, glucocerebrosidase (GCase), recombinant wt. enzyme velaglucerase alfa (Homo sapiens, UniProt P04062); experiment: Glucocerebrosidase activity assay with blue substrate (4MU-Glc); assay type: biochemical; conditions: 4MU-Glc substrate enzyme activity assay
T2 construct: purchased Shire Human Genetic Therapies, Inc. Vpriv
T2 sequence (P04062 40-536): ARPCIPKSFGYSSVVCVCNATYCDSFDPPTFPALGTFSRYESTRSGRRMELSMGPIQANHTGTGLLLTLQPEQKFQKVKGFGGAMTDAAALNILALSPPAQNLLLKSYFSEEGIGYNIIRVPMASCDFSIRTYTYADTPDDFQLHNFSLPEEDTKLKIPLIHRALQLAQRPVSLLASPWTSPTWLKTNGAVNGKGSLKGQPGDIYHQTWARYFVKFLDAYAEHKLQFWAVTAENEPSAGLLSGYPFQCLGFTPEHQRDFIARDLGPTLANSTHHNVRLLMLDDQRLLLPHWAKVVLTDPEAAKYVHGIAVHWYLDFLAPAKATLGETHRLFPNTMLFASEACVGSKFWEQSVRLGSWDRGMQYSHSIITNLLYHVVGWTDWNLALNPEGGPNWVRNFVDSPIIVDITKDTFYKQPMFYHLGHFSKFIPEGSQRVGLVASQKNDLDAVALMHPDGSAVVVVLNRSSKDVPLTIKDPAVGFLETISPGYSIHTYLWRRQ
Procedure: (§1) The compounds in DMSO solution 0.5 μL/well were transferred to a black 96-well plate (the final titration was 24 nM to 50 μM, 12 concentrations, 2 times dilution). 33.5 μL enzyme solution (7.5 nM final concentration) was transferred to the wells. After 5 min of incubation at room temperature, the enzyme reaction was initiated by the addition of 33 μL/well blue substrate or 66.5 μL/well red substrate. Final concentrations of the blue substrate (4MU-Glc) and red substrate (Res-Glc) were 1.5 mM and 30 μM, respectively. The red substrate reaction was measured in the Biotek Synergy H1 multi-mode plate reader with Ex=573 nm and Em=610 nm at 37° C. every 20 sec for 30 min. The blue substrate reaction was terminated by the addition of 33 μL/well stop solution (1 M NaOH and 1 M glycine mixture, pH 10) after 30 min of incubation at 37° C. The fluorescence was then measured in the plate reader at Ex=365 nm and Em=440 nm.
The recombinant wt. enzyme velaglucerase alfa (Vpriv®, Shire Human Genetic Therapies, Inc.) was obtained from residual solution after clinical infusions. The GCase activity assay buffer was composed of 50 mM citric acid, 176 mM K2HPO4, and 0.01% Tween-20 at pH 5.9. A solution of 1 M sodium hydroxide and 1 M glycine was used as the stop solution for the 4MU-β-glc substrate assay.
The compounds in DMSO solution 0.5 μL/well was transferred to a black 96-well plate (the final titration was 24 nM to 50 μM, 12 concentrations). 33.5 μL enzyme solution (7.5 nM final concentration) was transferred to the wells. After 5 min of incubation at room temperature, the enzyme reaction was initiated by the addition of 33 μL/well 4MU-Glc substrate or 66.5 μL/well red substrate. Final concentrations of the 4MU-Glc substrate and Res-Glc substrate were 1.5 mM and 30 μM, respectively. The red substrate reaction was measured in the Biotek Synergy H1 multi-mode plate reader with Ex=573 nm and Em=610 nm at 37° C. in every 20 seconds for 30 min. The 4MU-Glc substrate reaction was terminated by the addition of 33 μL/well stop solution (1 M NaOH and 1 M glycine mixture, pH 10) after 30 min of incubation at 37° C. The fluorescence was then measured in the plate reader with Ex=365 nm and Em=440 nm.

[3] = target: T2, glucocerebrosidase (GCase), recombinant wt. enzyme velaglucerase alfa; experiment: Glucocerebrosidase activity assay with red substrate (Res-β-glc); assay type: biochemical; conditions: red substrate enzyme activity assay
Procedure: as §1, with “nm. […]” for “nm.”
The compounds in DMSO solution 0.5 μL/well was transferred to a black 96-well plate (the final titration was 24 nM to 50 μM, 12 concentrations). […] The red substrate reaction was measured in the Biotek Synergy H1 multi-mode plate reader with Ex=573 nm and Em=610 nm at 37° C. in every 20 seconds for 30 min. […] The fluorescence was then measured in the plate reader with Ex=365 nm and Em=440 nm.

[4] = target: T3, GCase (Homo sapiens, UniProt P04062); experiment: Fluorescence polarization (FP) assay, probe titrated with enzyme; assay type: binding; conditions: probe 50 nM, enzyme 5 nM to 10 μM
T3 construct: purchased Shire Human Genetic Therapies, Inc. Vpriv
T3 sequence (P04062 40-536): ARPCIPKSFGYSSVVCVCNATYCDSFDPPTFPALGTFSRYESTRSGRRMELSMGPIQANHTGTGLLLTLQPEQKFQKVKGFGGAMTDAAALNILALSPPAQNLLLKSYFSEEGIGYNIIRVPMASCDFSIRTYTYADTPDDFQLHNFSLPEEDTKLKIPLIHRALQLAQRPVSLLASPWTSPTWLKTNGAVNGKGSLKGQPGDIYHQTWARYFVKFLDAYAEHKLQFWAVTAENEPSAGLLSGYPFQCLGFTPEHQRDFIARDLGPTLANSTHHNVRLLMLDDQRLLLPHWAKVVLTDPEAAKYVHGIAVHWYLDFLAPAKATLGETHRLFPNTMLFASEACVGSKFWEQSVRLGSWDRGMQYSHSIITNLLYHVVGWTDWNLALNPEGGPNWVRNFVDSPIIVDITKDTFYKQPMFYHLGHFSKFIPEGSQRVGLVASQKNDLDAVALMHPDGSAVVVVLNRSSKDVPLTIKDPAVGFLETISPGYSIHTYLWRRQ
Procedure: The fluorescent probe 3 (25 nL/well, 50 nM final concentration) was transferred to a 384-well black plate using a Labcyte Echo 550 Liquid Handler system. The 25 μL/well enzyme dilutions with GCase enzyme activity buffer were added to the plate, which was shaken at room temperature in dark for 20 min. The final titration was 5 nM to 10 μM, 10 concentrations, 2 times dilution. The fluorescence polarization was measured in Molecular Devices Analyst GT with Ex=535 nm and Em=580 nm, G Factor=1.05.
The fluorescent probe 3 (25 nL/well, 50 nM final concentration) was transferred to a 384-wells black plate by using Labcyte Echo 550 Liquid Handler system. The 25 μL/well enzyme dilutions in GCase enzyme activity buffer (the final titration was 5 nM to 10 μM, 10 concentrations, 2 times dilution) were added to the plate, and shook at room temperature in dark for 20 min. The fluorescence polarization was measured in Molecular Devices Analyst GT with Ex=535 nm and Em=580 nm, G Factor=1.05.

Row | SMILES | enzyme activity comparing to the wt. GCase ([1]; 4MU-Glc substrate) | enzyme activity comparing to the wt. GCase ([1]; red substrate) [folds] | enzyme activity followed by dialysis ([1]; three substrate assays, in words) | maximum activity / activation activity [2] [folds] | activation activity, red substrate [3] [folds] | Kd [4]
1 | Cc1cc(C)n2ccc(C(=O)Nc3ccc(-c4cn(CCOCCOCCC(=O)ON5C(=O)CCC5=O)nn4)cc3)c2n1 [No. 2, 2,5-Dioxopyrrolidin-1-yl 3-(2-(2-(4-(4-(2,4-dimethylpyrrolo[1,2-a]pyrimidine-8-carboxamido)phenyl)-1H-1,2,3-triazol-1-yl)ethoxy)ethoxy)propanoate] | around 22 folds | ~28 | not decreased significantly | 20 | 10 | –
2 | Cc1cc(C)n2ccc(C(=O)Nc3ccc(-c4cn(CCOCCOCCNC(=O)c5ccc(-c6c7ccc(=[N+](C)C)cc-7oc7cc(N(C)C)ccc67)c(C(=O)[O-])c5)nn4)cc3)c2n1 [No. 4, 2-(3,6-Bis(dimethylamino)xanthylium-9-yl)-5-((2-(2-(2-(4-(4-(2,4-dimethylpyrrolo[1,2-a]pyrimidine-8-carboxamido)phenyl)-1H-1,2,3-triazol-1-yl)ethoxy)ethoxy)ethyl)carbamoyl)benzoate] | – | – | – | – | – | 710 nM and ~710 nM
